From patent publication EP0018104A2, “Tetrahydroisoquinolines, their production and the compounds and pharmaceutical compositions containing them for use in the prevention or treatment of hypertension” (Takeda Chemical Industries, Ltd., priority 1979, dated 1980) come the findings set out here.

SMILES strings stand for the structures.

In the experiment the target is T1, angiotensin I converting enzyme (ACE) (Oryctolagus cuniculus, UniProt P12822).
T1 construct: prepared from the lungs of albino rabbit according to the method described by Wallace et al; from tissue; host or cells: lungs of albino rabbit
T1 sequence (P12822 34-1310): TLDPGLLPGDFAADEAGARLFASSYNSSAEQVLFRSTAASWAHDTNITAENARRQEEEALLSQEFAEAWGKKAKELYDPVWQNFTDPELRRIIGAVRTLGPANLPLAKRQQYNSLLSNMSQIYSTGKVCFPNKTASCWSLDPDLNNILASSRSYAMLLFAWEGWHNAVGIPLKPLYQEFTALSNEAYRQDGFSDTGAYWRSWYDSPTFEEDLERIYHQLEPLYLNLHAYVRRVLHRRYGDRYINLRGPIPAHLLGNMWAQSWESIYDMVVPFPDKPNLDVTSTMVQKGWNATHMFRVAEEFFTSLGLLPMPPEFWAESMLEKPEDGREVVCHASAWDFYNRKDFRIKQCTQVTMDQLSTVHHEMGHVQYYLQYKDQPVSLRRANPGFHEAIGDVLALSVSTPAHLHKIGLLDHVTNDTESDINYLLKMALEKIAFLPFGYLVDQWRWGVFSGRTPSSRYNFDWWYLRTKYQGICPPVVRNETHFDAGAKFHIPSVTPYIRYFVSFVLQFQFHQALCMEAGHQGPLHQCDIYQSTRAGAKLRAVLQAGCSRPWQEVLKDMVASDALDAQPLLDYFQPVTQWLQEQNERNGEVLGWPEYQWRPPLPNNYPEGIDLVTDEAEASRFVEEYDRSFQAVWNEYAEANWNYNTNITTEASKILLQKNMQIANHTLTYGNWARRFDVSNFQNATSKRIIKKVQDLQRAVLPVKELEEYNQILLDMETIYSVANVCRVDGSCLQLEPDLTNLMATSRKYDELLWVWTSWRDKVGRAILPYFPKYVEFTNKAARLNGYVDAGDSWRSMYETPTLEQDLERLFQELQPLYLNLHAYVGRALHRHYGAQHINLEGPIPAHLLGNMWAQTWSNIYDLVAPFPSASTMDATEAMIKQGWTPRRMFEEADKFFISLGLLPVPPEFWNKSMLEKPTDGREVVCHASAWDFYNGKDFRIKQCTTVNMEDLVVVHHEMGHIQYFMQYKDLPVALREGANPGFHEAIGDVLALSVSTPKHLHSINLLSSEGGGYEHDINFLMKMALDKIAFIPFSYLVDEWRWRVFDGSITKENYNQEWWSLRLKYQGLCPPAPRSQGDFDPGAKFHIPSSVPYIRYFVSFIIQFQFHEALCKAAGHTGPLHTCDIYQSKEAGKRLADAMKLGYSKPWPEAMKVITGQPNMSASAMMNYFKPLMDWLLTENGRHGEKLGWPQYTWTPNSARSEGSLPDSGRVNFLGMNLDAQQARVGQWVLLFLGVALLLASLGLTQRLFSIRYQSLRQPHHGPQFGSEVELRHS
Kind of experiment: Inhibition of angiotensin I converting enzyme (HHL substrate, hippuric acid colorimetry, modified Cushman method). In kind it is biochemical, albino rabbit. Conditions: ACE from rabbit lung, 37°C, one hour, read-out: Inhibitory Activity on ACE (%); for inhibition at 1 µM: Concentration 1 µM; for inhibition at 10 µM: Concentration 10 µM. How it is done: Inhibitions of Angiotensin I Converting Enzyme by the Compounds of this Invention.
The experiment was conducted in accordance with a modification of the method described by Cushman et al. [Biochemical Pharmacology, Vol. 20, p1637(1971)] using an angiotensin I converting enzyme (ACE) prepared from the lungs of albino rabbit according to the method described by Wallace et al. [American Journal of Physiology, Vol 234, page R141(1978)]. That is, using hippuryl-L-histidyl-L-leucin (HHL) as the substrate, the ACE inhibitory activity was determined in terms of percentage inhibitation on the amount of hippurie acid produced by ACE when the present compound was added. A solution of the compound of the present invention dissolved in an 0.02 to 2% dimethyl sulfoxide-500 mMpotassium phosphate buffer solution (pH 8.3, containing 300 mM sodium chloride) was added to 100 µℓ of ACE (protein concentration, 20 mg/mℓ) and 100 µℓ of 1.25 mM HHL. In this experiment a potassium phosphate buffer solution containing dimethyl sulfoxide at a concentration equal to that of the test solution was used as a control. After incubating the solution at 37°C for one hour, 150 µℓ of 1N hydrochloric acid were added to the solution to terminate the reaction. After 1 mℓ of ethyl acetate was added, the solution was centrifuged at 3000 r.p.m. for 10 minutes. An 0.5 mℓ aliquot was separated from the ethyl acetate layer and dried at a temperature below 50°C under a nitrogen. gas stream. The residue was mixed with mℓ of 1M aqueous sodium chloride and the mixture was subjected to colorimetry at a wavelength of 228 nm.

Take `CC(=O)SCC(C)C(=O)N1Cc2cc(CC(C)C)ccc2CC1C(=O)O` (stereo not drawn) [Example 34, 2-(3-acetylthio-2-methylpropionyl)-7-isobutyl-1,2,3,4-tetrahydroisoquinoline-3-carboxylic acid]: the inhibition at 1 µM stood at 63% and the inhibition at 10 µM was determined as 94%.

For the compound `CC(=O)SCC(C)C(=O)N1Cc2cc3c(cc2C[C@H]1C(=O)O)OCO3` (stereo partly drawn) [Example 38, (3S)-2-(3-acetylthio-2-methylpropionyl)-6,7-methylenedioxy-1,2,3,4-tetrahydroisoquinoline-3-carboxylic acid], the inhibition at 1 µM turned out to be 83% and the inhibition at 10 µM came to 100%.

Consider `CC(=O)SCC(C)C(=O)N1Cc2cc(Br)ccc2CC1C(=O)O` (stereo not drawn) [Example 42, 2-(3-acetylthio-2-methylpropiony)-7-tromo-1,2,3,4-tetrahydroisoquinoline-3-carboxylic acid], for which the inhibition at 1 µM turned out to be 69% and the inhibition at 10 µM worked out at 93%.

For the compound `CC(=O)SCC(C)C(=O)N1Cc2cc(N3CCCCC3)ccc2CC1C(=O)O` (stereo not drawn) [Example 44, 2-(3-acetylthio-2-methylpropionyl)-7-piperidino-1,2,3,4-tetrahydroisoquinoline-3-carbozylic acid], the inhibition at 1 µM came to 66% and the inhibition at 10 µM turned out to be 97%.

For the compound `CC(CS)C(=O)N1Cc2cc3c(cc2C[C@H]1C(=O)O)OCO3` (stereo partly drawn) [Example 52, (3S)-2-(3-mercapto-2-methylpropionul)-1,7-mezhylene-dioxy-1,2,3,4-tetrahydroisoquinoline-3-earboxylie acid], the inhibition at 1 µM worked out at 60% and the inhibition at 10 µM was determined as 82%.

For `CC(C)(C)c1ccc2c(c1)CN(C(=O)C(CS)CS)C(C(=O)O)C2` (stereo not drawn) [Example 71, 7-tert-butyl-2-(3-mercapto-2-mereaptomethylprionyl)-1,2,3,4-tetrahydroisoquinoline-3-carboxylic acid], the inhibition at 1 µM worked out at 71% and the inhibition at 10 µM amounted to 77%.
